The values below are quoted from earlier work in patent US9586978B2, “Anti-viral compounds” (AbbVie Inc., priority 2009, dated 2017).

One data set relates to HCV genotype 1a. Conditions: observed by Nettles et al.; read-out: EC50 against HCV genotype 1a; cited from earlier work.
The subject of the next data set is HCV genotype 1b. Conditions: observed by Nettles et al.; read-out: EC50 against HCV genotype 1b; cited from earlier work.
A further data set deals with HCV genotype 3a. Conditions: observed by Nettles et al.; read-out: EC50 against HCV genotype 3a; cited from earlier work.
The test system of the next data set is HCV genotype 4a. Conditions: observed by Nettles et al.; read-out: EC50 against HCV genotype 4a; cited from earlier work.
Another data set has as its system HCV genotype 5a. Conditions: observed by Nettles et al.; read-out: EC50 against HCV genotype 5a; cited from earlier work.
In another data set the test system is different HCV genotypes. The conditions noted are these: summary over genotypes, see Nettles et al.; cited from earlier work.

For `COC(=O)N[C@H](C(=O)N1CCC[C@H]1c1ncc(-c2ccc(-c3ccc(-c4cnc([C@@H]5CCCN5C(=O)[C@@H](NC(=O)OC)C(C)C)[nH]4)cc3)cc2)[nH]1)C(C)C` [BMS-790052], the EC50 was 0.05 nM with HCV genotype 1a; 0.009 nM with HCV genotype 1b; 0.127 nM with HCV genotype 3a; 0.012 nM in the data set with HCV genotype 4a; 0.033 nM with HCV genotype 5a; ≤ 0.2 nM in the data set with different HCV genotypes.

Usually EC50 stands for the concentration that produces a half-maximal response.
